Experimental data: EP1655027A1, “9-(N-methyl-piperidyliden-4)-thioxanthene for treatment of pulmonary hypertension and migraine” (Biofrontera Pharmaceuticals GmbH, priority 2004, dated 2006)

Tests used:
[1] = system: plasma protein extravasation; assay: mCPP model in guinea pigs: plasma protein extravasation in the dura mater (EvansBlue); type: in vivo; settings: for plasma protein extravasation as EvansBlue extinction at 600nm: 2 minutes before 1µg/kg mCPP, guinea pigs
Experimental: Functional test of Pimethixene in the mCPP model in guinea pigs.
In accordance to the protocol published by Markowitz et. al; (1987) and Olesen et. al; (2000), guinea pigs were used to determine the amount of plasma protein released at the blood vessels within the Dura mater after mCPP application. […] 2 minutes later 1µg/kg body weight mCPP were injected and followed by the i.v. application of EvansBlue as marker for the protein plasma extravasation. 15 minutes later animals were transcranial perfused and decapitated. A,defined area of the dura mater was isolated and transferred into an eppendorf tube containing 200µl formamid. Because EvansBlue binds to plasma protein, the amount of bound marker dye is a measure of extravasation of plasma protein. Formamid dissolves EvansBlue from the protein which can be colorimetric detected and quantified at 600 nm. Table 2: Determination of plasma protein extravasation as EvansBlue extinction at 600nm.

5-HT2C receptor = biological target: T1, 5-HT2C receptor (Homo sapiens, UniProt P28335); assay: 5-HT2C receptor binding method, [3H]mesulergine; settings: read-out: pKi values (converted)
T1 construct: expressed in transfected cells; host or cells: Cos-7
Experimental: 5-HT2C receptors were labelled in Cos-7 cells expressing the human 5-HT2C receptor and in NIH-3T3 expressing the rat 5-HT2C receptor.
Assays were conducted as described for the 5-HT2A receptor except that the radioligand was [^3H]mesulergine. […] .

M1 muscarinic receptor = biological target: T2, M1 muscarinic receptor (Homo sapiens, UniProt P11229); assay: Receptor affinity, M1 (acetylcholine as agonist); type: binding; settings: read-out: pKi values (converted)
T2 sequence (P11229 1-460): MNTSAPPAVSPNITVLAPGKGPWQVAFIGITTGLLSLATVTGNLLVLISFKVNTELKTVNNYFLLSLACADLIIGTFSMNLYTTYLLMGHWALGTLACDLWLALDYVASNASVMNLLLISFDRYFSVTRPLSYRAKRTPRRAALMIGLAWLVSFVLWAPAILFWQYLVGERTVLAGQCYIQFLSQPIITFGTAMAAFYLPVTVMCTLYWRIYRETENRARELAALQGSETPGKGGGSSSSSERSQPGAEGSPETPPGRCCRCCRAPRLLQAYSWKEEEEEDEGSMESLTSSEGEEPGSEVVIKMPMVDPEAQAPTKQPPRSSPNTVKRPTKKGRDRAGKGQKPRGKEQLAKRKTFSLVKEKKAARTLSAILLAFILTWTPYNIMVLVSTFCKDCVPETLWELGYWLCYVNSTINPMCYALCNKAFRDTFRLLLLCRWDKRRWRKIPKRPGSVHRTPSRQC
Experimental: (§1) Summary of pKi values of Pimethixene for the respective receptor subtypes. pKi values were calculated using the equation of Cheng and Prusoff {pKi = -log (IC50/[1+ used concentration of Agonist/EC50])}.EC80 values were calculated from corresponding dose-response experiment using 5-HT, histamine, epinephrine (alpha 1A adrenergic receptor), dopamine (D2 dopaminergic receptor), and acetylcholine (M1 muscarinic receptor) as agonists.

5-HT2A receptor = biological target: T3, 5-HT2A receptor (Homo sapiens, UniProt P28223); assay: 5-HT2A receptor binding method, [3H]ketanserin; settings: read-out: pKi values (converted)
T3 construct: expressed in transfected cells; host or cells: HEK293

human H1 receptor = biological target: T4, human H1 receptor (Homo sapiens, UniProt P35367); assay: Cloned human H1 receptor binding assay, [3H]-mepyramine
T4 construct: expressed in transfected cells
Experimental: (§2) CHO cells were stably transfected with an expression plasmid pCineohH1, pCineohH2, pCineohH3 and pCineohH4 encoding the human Histamine H1, H2, H3 or H4 receptor, respectively. Recombinant cell lines were harvested after confluent growth, homogenized in ice-cold 50 mM Na2/potassium phosphate buffer (pH 7.4) and used for radioligand binding studies. Cell homogenates (40 - 50 µg of protein) were incubated for 30 min at 25°C in 50 mM Na2/potassium phosphate buffer (pH 7.4) in 400 µl with the various concentrations of either [^3H]-mepyramine, [^3H]-thiotidine, [^3H]-R-α-Methylhistamine, and [^3H]-pyramilamine for cells expressing recombinant human H1, H2, H3 and H4 receptors, respectively. The nonspecific binding was defined in the presence of 1 µM mianserin. In displacement studies, cell homogenated were incubated either with 1 nM [^3H]-mepyramine, 15 nM [^3H]-thiotidine, 0.5 nM [^3H]-R-α-Methylhistamine, or 15 nM [^3H]-pyramilamine and increasing concentrations of competing ligands. The incubations were stopped by rapid dilution with 3 ml of ice-cold 50 mM Na2/potassium phosphate buffer (pH 7.4). The bound radioactivity was seperated by filatration through Whatman GF/C filters that had been treated with 0.3 % polyethyleneimine. Filters were washed twice in 3 ml of buffer and radioactivity retained on the filters was measured by liquid scinitllation counting. […]

[2] = biological target: T5, alpha 1A adrenergic receptor (Homo sapiens, UniProt P35348); assay: Receptor affinity, Alpha 1A (epinephrine as agonist); type: binding; settings: read-out: pKi values (converted)
T5 sequence (P35348 1-466): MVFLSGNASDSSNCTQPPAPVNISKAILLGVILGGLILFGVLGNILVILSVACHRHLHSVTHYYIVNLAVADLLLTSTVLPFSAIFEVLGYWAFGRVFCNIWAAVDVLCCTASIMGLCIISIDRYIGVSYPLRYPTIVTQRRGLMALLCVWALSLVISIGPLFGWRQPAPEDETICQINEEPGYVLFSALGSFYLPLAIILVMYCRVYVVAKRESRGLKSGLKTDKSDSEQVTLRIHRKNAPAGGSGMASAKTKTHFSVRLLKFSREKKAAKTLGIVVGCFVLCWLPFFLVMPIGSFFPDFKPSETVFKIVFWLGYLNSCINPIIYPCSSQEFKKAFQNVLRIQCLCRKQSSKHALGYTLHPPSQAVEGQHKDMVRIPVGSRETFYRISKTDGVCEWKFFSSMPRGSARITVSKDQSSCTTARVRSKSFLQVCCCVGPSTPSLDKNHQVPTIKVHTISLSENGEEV
Experimental: as §1

[3] = biological target: T6, human Histamine H2 receptor (Homo sapiens, UniProt P25021); assay: Cloned human H2 receptor binding assay, [3H]-thiotidine
T6 construct: expressed in transfected cells
Experimental: as §2

[4] = biological target: T7, human Histamine H4 receptor (Homo sapiens, UniProt Q9H3N8); assay: Cloned human H4 receptor binding assay, [3H]-pyramilamine
T7 construct: expressed in transfected cells
Experimental: as §2

D2 dopaminergic receptor = D2 dopaminergic receptor (Homo sapiens, UniProt P14416); assay: Receptor affinity, D2 (dopamine as agonist); type: binding; settings: read-out: pKi values (converted)
Experimental: as §1

human 5-HT2B receptor = human 5-HT2B receptor (Homo sapiens, UniProt P41595); assay: Cloned human 5-HT2B receptor binding assay, [3H]-5HT
[5] = biological target: T8, human Histamine H3 receptor (Homo sapiens, UniProt Q9Y5N1); assay: Cloned human H3 receptor binding assay, [3H]-R-α-Methylhistamine
T8 construct: expressed in transfected cells
Experimental: as §2

Chain of human 5-HT2B receptor (P41595 whole entry): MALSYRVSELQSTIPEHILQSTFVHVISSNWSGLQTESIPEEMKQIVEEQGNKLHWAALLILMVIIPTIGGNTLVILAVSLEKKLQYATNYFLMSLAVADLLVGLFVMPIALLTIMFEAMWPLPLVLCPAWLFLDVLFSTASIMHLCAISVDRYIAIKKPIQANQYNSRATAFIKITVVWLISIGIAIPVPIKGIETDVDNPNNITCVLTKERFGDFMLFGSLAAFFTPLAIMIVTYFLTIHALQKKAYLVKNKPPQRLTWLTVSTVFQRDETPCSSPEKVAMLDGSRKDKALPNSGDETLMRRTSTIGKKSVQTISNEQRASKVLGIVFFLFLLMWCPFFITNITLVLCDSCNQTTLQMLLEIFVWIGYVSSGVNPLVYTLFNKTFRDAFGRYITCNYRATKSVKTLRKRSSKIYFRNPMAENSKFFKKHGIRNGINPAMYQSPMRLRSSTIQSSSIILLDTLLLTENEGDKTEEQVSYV
T6 sequence (P25021 whole entry): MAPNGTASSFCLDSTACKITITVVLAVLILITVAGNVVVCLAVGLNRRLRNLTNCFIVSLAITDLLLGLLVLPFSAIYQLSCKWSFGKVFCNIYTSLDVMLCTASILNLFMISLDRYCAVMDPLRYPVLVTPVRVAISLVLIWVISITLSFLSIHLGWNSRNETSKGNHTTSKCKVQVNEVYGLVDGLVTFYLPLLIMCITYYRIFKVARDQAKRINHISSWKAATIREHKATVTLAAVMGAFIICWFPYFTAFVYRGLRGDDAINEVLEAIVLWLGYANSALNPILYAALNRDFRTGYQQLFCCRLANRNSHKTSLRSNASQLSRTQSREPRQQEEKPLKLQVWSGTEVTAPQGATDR
T7 sequence (Q9H3N8 whole entry): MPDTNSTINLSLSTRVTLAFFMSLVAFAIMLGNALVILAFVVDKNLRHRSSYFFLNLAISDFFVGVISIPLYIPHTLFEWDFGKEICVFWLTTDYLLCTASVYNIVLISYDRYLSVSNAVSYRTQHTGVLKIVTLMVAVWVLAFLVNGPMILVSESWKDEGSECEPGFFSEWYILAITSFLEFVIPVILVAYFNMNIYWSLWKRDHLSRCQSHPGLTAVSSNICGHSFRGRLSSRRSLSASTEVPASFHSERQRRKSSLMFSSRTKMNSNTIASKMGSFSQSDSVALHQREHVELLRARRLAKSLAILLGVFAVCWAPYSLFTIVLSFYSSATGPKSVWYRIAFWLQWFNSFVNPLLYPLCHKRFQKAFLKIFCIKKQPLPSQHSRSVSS
T8 sequence (Q9Y5N1 whole entry): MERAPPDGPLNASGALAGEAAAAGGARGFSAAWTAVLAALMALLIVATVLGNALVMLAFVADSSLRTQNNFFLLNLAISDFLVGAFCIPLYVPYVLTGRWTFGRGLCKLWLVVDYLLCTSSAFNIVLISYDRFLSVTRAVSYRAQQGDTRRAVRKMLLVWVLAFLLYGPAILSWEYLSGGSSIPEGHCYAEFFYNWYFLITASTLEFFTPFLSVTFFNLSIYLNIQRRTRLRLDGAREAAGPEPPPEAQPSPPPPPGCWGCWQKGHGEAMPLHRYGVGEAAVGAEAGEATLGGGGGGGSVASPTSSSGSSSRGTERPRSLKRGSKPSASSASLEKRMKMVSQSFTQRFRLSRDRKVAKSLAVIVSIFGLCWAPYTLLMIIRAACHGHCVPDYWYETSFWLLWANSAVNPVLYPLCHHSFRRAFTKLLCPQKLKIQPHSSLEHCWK
T4 sequence (P35367 whole entry): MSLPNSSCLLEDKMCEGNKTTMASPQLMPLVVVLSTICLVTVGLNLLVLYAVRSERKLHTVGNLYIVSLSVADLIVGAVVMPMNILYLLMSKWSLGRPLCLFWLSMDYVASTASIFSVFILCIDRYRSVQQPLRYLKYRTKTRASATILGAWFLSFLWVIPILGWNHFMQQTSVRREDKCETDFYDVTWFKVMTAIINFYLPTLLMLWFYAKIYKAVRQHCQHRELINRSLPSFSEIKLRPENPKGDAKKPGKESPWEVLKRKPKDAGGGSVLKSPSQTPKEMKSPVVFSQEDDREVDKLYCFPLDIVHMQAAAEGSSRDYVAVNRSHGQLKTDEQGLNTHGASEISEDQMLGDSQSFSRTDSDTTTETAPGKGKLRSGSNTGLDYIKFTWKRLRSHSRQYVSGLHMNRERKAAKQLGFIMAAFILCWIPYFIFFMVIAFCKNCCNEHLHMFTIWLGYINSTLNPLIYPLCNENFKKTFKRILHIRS
T3 sequence (P28223 whole entry): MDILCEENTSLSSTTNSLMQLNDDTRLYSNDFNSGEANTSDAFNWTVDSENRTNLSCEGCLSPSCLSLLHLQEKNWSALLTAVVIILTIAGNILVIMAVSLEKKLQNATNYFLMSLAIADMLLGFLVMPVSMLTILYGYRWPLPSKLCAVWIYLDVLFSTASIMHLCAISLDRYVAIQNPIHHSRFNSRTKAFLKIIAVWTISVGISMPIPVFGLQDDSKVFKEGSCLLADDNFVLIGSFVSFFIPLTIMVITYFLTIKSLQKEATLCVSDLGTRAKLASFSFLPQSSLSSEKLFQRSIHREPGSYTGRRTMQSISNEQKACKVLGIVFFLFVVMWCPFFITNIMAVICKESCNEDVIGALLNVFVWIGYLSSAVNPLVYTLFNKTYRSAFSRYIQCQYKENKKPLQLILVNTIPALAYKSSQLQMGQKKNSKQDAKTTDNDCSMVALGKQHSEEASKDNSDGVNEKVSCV
Chain of D2 dopaminergic receptor (P14416 whole entry): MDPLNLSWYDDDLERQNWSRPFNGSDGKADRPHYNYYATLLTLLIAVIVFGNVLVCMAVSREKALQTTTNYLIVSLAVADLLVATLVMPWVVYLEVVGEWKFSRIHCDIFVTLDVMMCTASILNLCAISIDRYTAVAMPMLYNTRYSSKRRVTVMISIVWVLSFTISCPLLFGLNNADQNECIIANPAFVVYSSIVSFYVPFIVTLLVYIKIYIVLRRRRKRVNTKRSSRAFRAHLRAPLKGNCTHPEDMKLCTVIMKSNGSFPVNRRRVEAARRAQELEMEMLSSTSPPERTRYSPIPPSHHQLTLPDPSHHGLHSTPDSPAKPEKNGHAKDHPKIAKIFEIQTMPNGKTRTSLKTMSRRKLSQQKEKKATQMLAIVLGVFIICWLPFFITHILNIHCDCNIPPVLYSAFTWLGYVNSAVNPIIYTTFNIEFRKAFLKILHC
T1 sequence (P28335 33-458): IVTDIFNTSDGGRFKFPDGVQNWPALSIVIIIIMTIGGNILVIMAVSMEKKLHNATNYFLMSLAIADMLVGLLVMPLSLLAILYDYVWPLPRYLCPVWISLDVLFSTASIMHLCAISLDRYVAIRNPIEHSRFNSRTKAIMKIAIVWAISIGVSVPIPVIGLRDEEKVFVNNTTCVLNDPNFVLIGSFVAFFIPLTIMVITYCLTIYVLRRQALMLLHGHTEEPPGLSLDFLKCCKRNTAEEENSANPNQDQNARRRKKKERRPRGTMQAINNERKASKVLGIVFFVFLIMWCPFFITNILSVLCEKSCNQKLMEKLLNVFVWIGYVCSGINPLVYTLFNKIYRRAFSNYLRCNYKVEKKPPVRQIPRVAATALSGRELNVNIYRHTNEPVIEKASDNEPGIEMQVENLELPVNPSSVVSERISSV

CC[C@@H](CO)NC(=O)[C@@H]1C=C2c3cccc4c3c(cn4C)C[C@H]2N(C)C1 [Methysergide]
plasma protein extravasation as EvansBlue extinction at 600nm ([1]; 0,1 µg/kg i.v.): 0,265 ± 0,034
plasma protein extravasation as EvansBlue extinction at 600nm ([1]; 1 µg/kg i.v.): 0,250 ± 0,027
plasma protein extravasation as EvansBlue extinction at 600nm ([1]; 10 µg/kg i.v.): 0,228 ± 0,064
plasma protein extravasation as EvansBlue extinction at 600nm ([1]; 100 µg/kg i.v.): 0,189 ± 0,026

CN1CCC(=C2c3ccccc3Sc3ccccc32)CC1 [Pimethixene, 9-(N-methyl-piperidyliden-4)-thioxanthene]
Ki (5-HT2C receptor): 2.51 nM
Ki (M1 muscarinic receptor): 2.51 nM
Ki (5-HT2A receptor): 0.0631 nM
plasma protein extravasation as EvansBlue extinction at 600nm ([1]; 0,01 µg/kg i.v.): 0,157 ± 0,040
plasma protein extravasation as EvansBlue extinction at 600nm ([1]; 0,1 µg/kg i.v.): 0,126 ± 0,028
plasma protein extravasation as EvansBlue extinction at 600nm ([1]; 0,001 µg/kg i.v.): 0,269 ± 0,022
Ki (human H1 receptor; H1, read-out: pKi values (converted)): 0.00794 nM
affinity (human H1 receptor; human H1 receptor, result in words): high affinity
Ki [2]: 25.1 nM
pKi values ([3]; H2): low activity
affinity ([3]; human H2 receptor, result in words): no affinity
pKi values ([4]; H4): low activity
affinity ([4]; human H4 receptor, result in words): no affinity
Ki (D2 dopaminergic receptor): 6.31 nM
Ki (human 5-HT2B receptor): 0.0251 nM
affinity for the 5-HT2B receptor versus 5HT2C receptor (human 5-HT2B receptor; selectivity, result in words): selective affinity
pKi values ([5]; H3): low activity
affinity ([5]; human H3 receptor, result in words): no affinity

CN1CCC(=C2c3ccccc3CCc3sccc32)CC1 [Pizotifen]
plasma protein extravasation as EvansBlue extinction at 600nm ([1]; 1 µg/kg i.v.): 0,404 ± 0,025
plasma protein extravasation as EvansBlue extinction at 600nm ([1]; 10 µg/kg i.v.): 0,144 ± 0,035
plasma protein extravasation as EvansBlue extinction at 600nm ([1]; 100 µg/kg i.v.): 0,230 ± 0,018
Ki (human 5-HT2B receptor): 2.88 nM

Clc1cccc(N2CCNCC2)c1 [mCPP, m-chlorophenylpiperazine]
extinction ([1]; positive control: mCPP agonist alone, 1µg/kg, negative control 0,130 ± 0,024): 0,300 ± 0,038
